The values that follow are results of earlier work, collected in US5714342A, “Compositions for the detection of protease in biological samples and methods of use therefo” (OncoImmunin, Inc., priority 1995, dated 1998).

The conditions of the data set: literature (Forster and Konig 1957; Arbeloa and Ojeda 1982); cited from earlier work.
With `O=C1OC2(c3ccccc31)c1cc(Br)c(O)c(Br)c1Oc1c2cc(Br)c(O)c1Br` [Eosin], the “concentration at which ground-state dimerization of free dye in solution was observed” value is recorded as “higher than 2.8×10^-2 M”.

For the molecule `CCN(CC)c1ccc2c(-c3ccccc3C(=O)O)c3ccc(=[N+](CC)CC)cc-3oc2c1` [Rhodamine B], the “concentration at which ground-state dimerization of free dye in solution was observed” value is reported as “higher than 6×10^-4 M”.

Take `O=C1OC2(c3ccc(O)cc3Oc3cc(O)ccc32)c2ccccc21` [fluorescein]: the “concentration at which ground-state dimerization of free dye in solution was observed” value is above 0.74 M.
